Test results as given in US20250332173A1, “COMPOUNDS AND METHODS FOR MODULATING NUCLEIC ACID SPLICING” (REMIX THERAPEUTICS INC., priority 2021, published 2025).
Where two headings read alike, the source gives them in different places.

Assays:
[1] = tested on: SMN2 mRNA; experiment: RT-qPCR splicing assay, SMN2 canonical junction (CJ) mRNA; format: cell-based, human; details: Homo sapiens; Table 5 panel; canonical junction qPCR; compound concentration having 50% response in CJ decrease; read-out: SMN2 IC50 (decrease in CJ mRNA levels)
Procedure, shortened: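 Read-out is canonical exon-exon junction mRNA quantified by RT-qPCR against a GAPDH, GUSB or PPIA control. Cells (A673 or K562) received compound for 24 h, top final dose 10 uM in an 11-point 3-fold series.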

[2] = tested on: HTT mRNA; experiment: RT-qPCR splicing assay, HTT canonical junction (CJ) and alternative junction (AJ) mRNA; format: cell-based, human; details: Homo sapiens; for AC50: increase in HTT alternative junction (AJ) mRNA, read-out: HTT AJ AC50
Procedure, shortened: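 Read-out is one-step RT-qPCR on cell lysates detecting the exon-exon junction of each isoform, normalized to a housekeeping gene (PPIA in A673, GAPDH or GUSB in K562).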

[3] = decrease in HTT canonical junction (CJ) mRNA, RT-qPCR, read-out: HTT CJ IC50
[4] = Table 5 panel, canonical junction qPCR, compound concentration having 50% response in CJ decrease, read-out: HTT IC50 (decrease in CJ mRNA levels)

Row | SMILES | IC50 [1] | IC50 [2, 3] | AC50 ([2]; RT-qPCR) | IC50 [2, 4]
1 | Cc1cn2cc(-c3cc(N)c4c(=O)n(C5CCNCC5)cnc4c3)cc(C#N)c2n1 [Compound 364, 6-[5-amino-4-oxo-3-(piperidin-4-yl)quinazolin-7-yl]-2-methylimidazo[1,2-a]pyridine-8-carbonitrile] | > 10000 nM | > 10000 nM | > 10000 nM | > 10000 nM
2 | Cn1cc2cc(-c3cc(F)c4c(=O)n(C5CCNC6(CC6)C5)ccc4c3)c(O)cc2n1 (stereo not drawn) [Compound 414, 2-{4-azaspiro[2.5]octan-7-yl}-8-fluoro-6-(6-hydroxy-2-methylindazol-5-yl)isoquinolin-1-one] | 100 to 1000 nM | 1000 to 10000 nM | 1000 to 10000 nM | 1000 to 10000 nM
3 | Cc1cn2cc(-c3cc(F)c4c(=O)n(C5CCNC6(CC6)C5)ccc4c3)cc(Cl)c2n1 (stereo not drawn) [Compound 413, 2-{4-azaspiro[2.5]octan-7-yl}-6-{8-chloro-2-methylimidazo[1,2-a]pyridin-6-yl}-8-fluoroisoquinolin-1-one] | < 100 nM | < 100 nM | < 100 nM | < 100 nM
4 | Cc1cn2cc(-c3cc(F)c4c(=O)n(C5CCOCC5)cnc4c3)cc(C#N)c2n1 [Compound 367, 6-[5-fluoro-3-(oxan-4-yl)-4-oxoquinazolin-7-yl]-2-methylimidazo[1,2-a]pyridine-8-carbonitrile] | 100 to 1000 nM | 100 to 1000 nM | 100 to 1000 nM | 100 to 1000 nM
5 | Cc1cn2cc(-c3ccc4c(=O)n([C@@H]5CCNC5)cc(C)c4c3)cc(F)c2n1 [Compound 452, (R)-6-(8-fluoro-2-methylimidazo[1,2-a]pyridin-6-yl)-4-methyl-2-(pyrrolidin-3-yl)isoquinolin-1(2H)-one] | < 100 nM | > 10000 nM | > 10000 nM | > 10000 nM
6 | Cc1cn2nc(-c3cc(Cl)c4c(=O)n(C5CCNCC5)ccc4c3)cc(C)c2n1 [Compound 390, 8-chloro-6-{2,8-dimethylimidazo[1,2-b]pyridazin-6-yl}-2-(piperidin-4-yl)isoquinolin-1-one; trifluoroacetaldehyde] | < 100 nM | < 100 nM | < 100 nM | < 100 nM
7 | Cc1cn2nc(-c3cc(C)c4c(=O)n(C5CCNC6(CC6)C5)ccc4c3)cc(C)c2n1 (stereo in doubt) [Compound 397, (S)-6-(2,8-dimethylimidazo[1,2-b]pyridazin-6-yl)-8-methyl-2-(4-azaspiro[2.5]octan-7-yl)isoquinolin-1(2H)-one] | < 100 nM | < 100 nM | < 100 nM | < 100 nM
8 | Cc1nc2c(F)cc(-c3cc(F)c4c(=O)n(C5CCNC6(CC6)C5)ccc4c3)cc2o1 (stereo not drawn) [Compound 417, 2-{4-azaspiro[2.5]octan-7-yl}-8-fluoro-6-(4-fluoro-2-methyl-1,3-benzoxazol-6-yl)isoquinolin-1-one] | < 100 nM | < 100 nM | < 100 nM | < 100 nM
9 | CN1CCC(Nc2ccc3c(=O)n(-c4ccc5nn(C)cc5c4)cnc3c2)CC1 [Compound 163] | > 10000 nM | > 10000 nM | > 10000 nM | > 10000 nM
10 | Cc1cn2nc(-c3cc(O)c4c(=O)n(C5CCNCC5)ccc4c3)cc(C)c2n1 [Compound 391, 6-(2,8-dimethylimidazo[1,2-b]pyridazin-6-yl)-8-hydroxy-2-(piperidin-4-yl)isoquinolin-1(2H)-one] | < 100 nM | < 100 nM | < 100 nM | < 100 nM
11 | Cc1cn2nc(-c3cc(C#N)c4c(=O)n(C5CCNC6(CC6)C5)ccc4c3)cc(C)c2n1 (stereo not drawn) [Compound 387] | < 100 nM | < 100 nM | < 100 nM | < 100 nM
12 | Cc1cn2nc(-c3cc(C)c4c(=O)n(C5CCNC6(CC6)C5)ccc4c3)cc(C)c2n1 (stereo in doubt) [Compound 398, (R)-6-(2,8-dimethylimidazo[1,2-b]pyridazin-6-yl)-8-methyl-2-(4-azaspiro[2.5]octan-7-yl)isoquinolin-1(2H)-one] | < 100 nM | < 100 nM | < 100 nM | < 100 nM
